Laboratory results as given in patent US20250339391A1, “METHODS FOR EFFECTIVE MANAGEMENT OF PAIN” (South Rampart Pharma, Inc., priority 2024, published 2025).
“Also recorded” adds a separate entry of the source.

Assays:
AM404 = assay: LC-MS/MS quantification of AM404 production in periaqueductal gray; format: in vivo; details: rat, 32 mg/kg IP, 30 min, with CFA or vehicle
Description: Deuterated compound D10-SRP-001 was synthesized by Olon Ricerca Bioscience (Concord, OH), and purity was determined to be >99.9% by HPLC. This was used as pure analytical standard for detection of SRP-001 using an LC-MS/MS method. Similarly, pure analytical standard of AM404 (10 ng/mL) obtained from Cayman Chemical (Ann Arbor, MI) was used to characterize the full fragmentation pattern of AM404. […] Thirty min post-injection, the animals were sacrificed (same as in the CFA/von Frey model), their brains harvested, and the midbrain periaqueductal gray (PAG) region excised. SRP-001 or AM404 were extracted from the PAG using a liquid-liquid extraction method using 1:1 MeOH:H2O for LC-MS/MS and were loaded onto a liquid chromatography-tandem mass spectrophotometer for analysis. The mass spectrophotometer was operated in multiple reaction monitoring (MRM) mode using positive ion electrospray. D10-SRP-001 was detected by monitoring the m/z transition 416→186. AM404 was detected by monitoring the m/z transition 396→287.

CD-1 male mice = assay: LPS fever induction antipyresis assay; format: in vivo, mouse; details: LPS 100 μg/kg ip, drug 75 mg/kg po, 2 h post drug
Description: Antipyresis experiments were carried out with n=60 CD-1 male mice weighing between 45-50 g. All mice were kept in a 12-h day/12-h night cycle with free access to food and water ad libitum. After habituating and acclimating the mice for a week, each mouse was briefly anesthetized for 1 min with 1% isoflurane and implanted subcutaneously a transmitter probe that records core body temperature—Implantable Programmable Temperature Transponder (IPTT-300) by Bio Medic Data Systems (BMDS), DE, USA. The mice were allowed to recover for at least one week from the surgery before any recordings were made and observed in their home cages prior to pyrogen challenge for inducing fever. Temperatures were recorded using the BMDS DAS-8027-IUS data reading system.
All mice were fasted overnight (15 h) with free access to water ad libitum prior to the pyrogen challenge. For the induction of fever, LPS from E. coli (100 μg/kg, 0111:B4) (MilliporeSigma, Billerica, MA, USA) was used. Mice received either LPS in 0.9% saline (sterile) (vehicle) or just 0.9% saline as an intraperitoneal (ip) injection.
Drug injection/concentration: All drugs and vehicle (10% DMSO: 10% labrasol:80% PEG400) were administered by oral gavage, PO dosing. Each dosing volume was ˜0.3-0.4 mL per mouse. […] We chose this dose to record antipyretic effect in a low dose that doesn't cause hypothermia in mice.

[1] = tested on: midbrain periaqueductal gray (PAG) cells; assay: Single-cell RNA sequencing of midbrain PAG in CFA-induced chronic inflammatory pain model; format: in vivo, rat; details: CFA rats; for expression of FAAH, CORO2A and RPL7L1 (scRNAseq): 100 mg/kg, 1 h
Description: Subsequently, we endeavored to explore the single-cell transcriptome of the eVF rat mid-brain PAG region to further define the mechanisms of action (MOA) of chronic inflammatory pain and, ultimately, SRP-001- and ApAP-mediated pain modulation. Left hind paws of Sprague Dawley rats were injected with 150 μl of 50% complete Freund's adjuvant (CFA), freshly diluted with sterile saline on the day of administration, to induce conspicuous long-standing inflammatory pain in the rats' hind paws, along with mechanical hyperalgesia tested using eVF. […].
Single-cell (scRNA) RNA sequencing. For cell nuclei isolation from the midbrain PAG, they were flash-frozen, dissected (by a cryotome), minced into small pieces, homogenized, filtered through 70 strainer and centrifuged. ReadiDrop 7-AAD cell viability dye (Bio-Rad) added, and flow sorted the live ([…]) nuclei in a BioRad Cell Sorter S3e using purity mode. Nuclei were counted using Nexcelom automated Cellometer with acridine orange/propidium iodide (AOPI) stain, and the Nuclei Stock Concentration used so that 10,000 nuclei could be targeted for each sample. […] Post library construction QC was performed using Agilent Bioanalyzer 2100 on High Sensitivity DNA chips, and after verification of sample traces, each library normalized based on the average fragment size, and the concentration determined using Qubit 4.0 fluorometer (Thermo Fisher Scientific). […]
Data processing. […] Read alignment, filtering, barcode counting, peak calling, and counting of both ATAC and GEX molecules were performed using cellranger-arc count. […] Only confidently mapped reads with valid barcodes, unique molecular identifiers (UMIs), and non-PCR duplicated were retained. The overall sequencing quality was evaluated by looking at the summary metrics of the web_summary.html file generated for each sample. […]

SMILES | AM404 production in the PAG (AM404) | antipyresis (CD-1 male mice) | expression of FAAH, CORO2A and RPL7L1 (scRNAseq) [1] | AM404 production in the PAG (AM404; 32 mg/kg) | regulation of FAAH signaling genes ([1]; IPA analysis)
CC(=O)Nc1ccc(O)cc1 [ApAP, acetaminophen] | diminished | comparable antipyresis | Downregulation |  | 
CCN(CC)C(=O)c1ccccc1S(=O)(=O)NCC(=O)Nc1ccc(O)cc1 [SRP-001, N,N-diethyl-2-[[2-(4-hydroxyanilino)-2-oxo-ethyl]sulfamoyl]benzamide] |  | comparable antipyresis | Downregulation | highest AM404 production; also recorded: produces more AM404 than ApAP | more significantly regulated by SRP-001 than ApAP
